# Measurements: ChEMBL document CHEMBL1201862, “PubChem BioAssay data set” (2004)
# The source made the active and inactive calls.
# Columns and labels:
# [1] = inhibitors of HIV Env-driven cell fusion, dose response, cherry-pick (AID 652057); format: functional, cell-based
# [2] = ZM109 Env clade C HIV-1 fusion inhibitors, dose response, HeLa effector, CEM target cells, luciferase, cherry-pick (AID 652058); format: functional, cell-based
# [3] = off-target signal loss in HeLa-CEM21 co-culture – HeLa F-luc CTL cells, cherry-picked, counter-screen for HIV-1 Env fusion inhibitor project, dose response (AID 652040); format: functional, cell-based;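 also: potency for signal decrease marking cytotoxic or nonspecific inhibition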
# [4] = inhibitors of clade B AD8 Env fusion, dose response, cell-based, cherry-pick (AID 652062); format: functional;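 also: luciferase signal from cell-cell fusion driven by HIV-1 clade B AD8 Env; potency is for inhibitors of fusion seen as a drop in luminescence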
# [5] = tested on: BJ; experiment: cytotoxicity toward BJ-TERT fibroblasts, dose response, cell-based, RAS-independent, luminescence (AID 1933); format: functional; conditions: Homo sapiens
# [6] = tested on: BJ; experiment: cells; format: functional, cell-based; conditions: Homo sapiens
# [7] = tested on: BJ; experiment: cytotoxicity toward BJ-TERT-LT-ST fibroblasts, dose response, cell-based, RAS-independent, luminescence (AID 1935); format: functional; conditions: Homo sapiens;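 also: BJ fibroblasts immortalized with TERT plus LT and ST oncogenes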
# [8] = cytotoxicity toward DRD oncogenic fibroblasts, dose response, cell-based, non-viral oncogenic, luminescence (AID 1934); format: functional; conditions: Homo sapiens
# [9] = HEp-2 cell cytotoxicity, dose response, cytotoxicity control for RSV inhibitor project, HTS (AID 2410); format: functional; conditions: human respiratory syncytial virus
# [10] = target: T1, Long-chain-fatty-acid--AMP ligase FadD28 (Mycobacterium tuberculosis, UniProt P9WQ59); experiment: Fluorescence polarization aasay to screen for inhibitors that compete for the binding of FadD28 to a bisubstrate Measured in Biochemical System Using Plate Reader - 2147-01_Inhibitor_Dose_CherryPick_Activity.; format: functional, Mycobacterium tuberculosis H37Rv
# T1 sequence (P9WQ59 whole entry): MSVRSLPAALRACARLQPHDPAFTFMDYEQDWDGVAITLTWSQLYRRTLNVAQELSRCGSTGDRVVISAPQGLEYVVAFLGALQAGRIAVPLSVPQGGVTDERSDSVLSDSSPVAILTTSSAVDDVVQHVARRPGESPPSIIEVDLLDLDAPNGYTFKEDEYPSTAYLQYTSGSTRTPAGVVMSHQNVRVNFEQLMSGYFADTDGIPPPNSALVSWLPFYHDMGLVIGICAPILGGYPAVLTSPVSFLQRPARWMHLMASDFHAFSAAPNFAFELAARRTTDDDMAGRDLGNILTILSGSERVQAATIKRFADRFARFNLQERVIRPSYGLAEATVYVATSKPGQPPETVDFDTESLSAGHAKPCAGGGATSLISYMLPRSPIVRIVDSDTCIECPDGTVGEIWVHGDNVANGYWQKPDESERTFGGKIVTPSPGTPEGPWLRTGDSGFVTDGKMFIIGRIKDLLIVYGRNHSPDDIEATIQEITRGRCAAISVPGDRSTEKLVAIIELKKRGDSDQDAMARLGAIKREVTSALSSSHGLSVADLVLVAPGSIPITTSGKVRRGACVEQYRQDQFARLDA
# [11] = P. falciparum 3D7-ScDHODH growth inhibitors, dose response, SYBR Green, dry powder samples (AID 1159570); format: functional, cell-based;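 also: parasite growth measured after 72 hours of compound exposure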
# [12] = HepG2 cell cytotoxicity, dose response, cytotoxicity control, plate reader, dry powder samples (AID 1159569); format: functional, cell-based;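 also: inhibitor potency with signal falling toward the positive control level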
# [13] = P. falciparum Dd2 growth inhibitors, dose response, SYBR Green, cherry-picked samples (AID 1159567); format: functional, cell-based
# [14] = P. falciparum Dd2 growth inhibitors, dose response, SYBR Green, dry powder samples (AID 1159566); format: functional, cell-based;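 also: potency for growth inhibition with lower SYBR green DNA signal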
# [15] = HepG2 cell cytotoxicity, dose response, cytotoxicity control, cherry-picked samples (AID 1159577); format: functional, cell-based
# [16] = P. falciparum ATP4 D1247Y mutant growth inhibitors, dose response, NITD609-resistant line, SYBR Green, dry powder (AID 1159571); format: functional, cell-based;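 also: parasites synchronized at ring stage by sorbitol before testing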
# [17] = target: T2, Histone-lysine N-methyltransferase NSD2 (Homo sapiens, UniProt O96028); format: biochemical
# T2 sequence (O96028 whole entry): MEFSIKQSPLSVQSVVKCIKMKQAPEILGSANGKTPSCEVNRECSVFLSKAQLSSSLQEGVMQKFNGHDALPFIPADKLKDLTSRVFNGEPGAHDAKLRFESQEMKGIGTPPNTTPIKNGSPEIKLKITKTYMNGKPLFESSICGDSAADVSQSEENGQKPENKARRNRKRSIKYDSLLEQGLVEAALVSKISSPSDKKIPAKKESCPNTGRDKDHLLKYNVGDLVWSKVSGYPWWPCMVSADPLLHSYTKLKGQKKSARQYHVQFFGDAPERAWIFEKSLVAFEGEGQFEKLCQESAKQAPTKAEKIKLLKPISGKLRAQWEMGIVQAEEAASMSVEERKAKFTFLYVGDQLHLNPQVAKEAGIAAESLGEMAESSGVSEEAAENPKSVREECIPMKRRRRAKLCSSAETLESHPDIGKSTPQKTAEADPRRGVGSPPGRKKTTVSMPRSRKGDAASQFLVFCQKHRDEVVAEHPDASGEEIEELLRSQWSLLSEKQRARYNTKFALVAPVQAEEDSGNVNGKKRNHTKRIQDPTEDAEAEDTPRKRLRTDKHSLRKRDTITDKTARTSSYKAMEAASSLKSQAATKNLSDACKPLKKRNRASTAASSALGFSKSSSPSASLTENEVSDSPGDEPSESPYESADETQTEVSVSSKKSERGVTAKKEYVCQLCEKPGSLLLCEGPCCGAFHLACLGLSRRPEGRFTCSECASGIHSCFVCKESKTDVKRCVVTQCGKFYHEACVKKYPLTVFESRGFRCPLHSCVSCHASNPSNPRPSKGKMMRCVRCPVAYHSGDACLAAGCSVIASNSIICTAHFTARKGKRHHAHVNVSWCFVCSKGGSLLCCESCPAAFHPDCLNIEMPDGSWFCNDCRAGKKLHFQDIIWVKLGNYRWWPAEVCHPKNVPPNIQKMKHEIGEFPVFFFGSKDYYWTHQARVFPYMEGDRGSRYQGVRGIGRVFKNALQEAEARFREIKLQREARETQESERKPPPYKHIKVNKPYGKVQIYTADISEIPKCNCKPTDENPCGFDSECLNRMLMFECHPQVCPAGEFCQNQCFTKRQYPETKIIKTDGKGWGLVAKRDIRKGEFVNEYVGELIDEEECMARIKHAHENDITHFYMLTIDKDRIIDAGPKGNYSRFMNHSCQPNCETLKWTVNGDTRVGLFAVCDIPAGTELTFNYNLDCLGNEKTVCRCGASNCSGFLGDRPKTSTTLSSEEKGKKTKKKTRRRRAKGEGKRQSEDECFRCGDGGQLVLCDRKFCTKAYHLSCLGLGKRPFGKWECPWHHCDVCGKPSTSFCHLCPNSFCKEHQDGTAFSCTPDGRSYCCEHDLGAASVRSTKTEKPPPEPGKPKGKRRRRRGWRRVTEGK
# [18] = cells; format: functional, cell-based
# [19] = cells; format: functional, cell-based; remark: listed apart in the source
# [20] = inhibitors of intracellular T. cruzi replication, confirmation, NIH3T3 host cells, beta-gal luminescence (AID 2044); format: functional, cell-based;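 also: intracellular parasites grown in NIH/3T3 mouse fibroblasts as host cells; luminescent beta-galactosidase reporter signal from transgenic T. cruzi replicating inside host cells; inhibitors lower the luminescence signal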
# [21] = cytotoxicity toward NIH3T3 fibroblasts, dose response, counter-screen, cell-based, ATP luminescence, mouse fibroblasts (AID 2010); format: functional;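 also: cells exposed to compound for about 90 hours before reading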
# [22] = target: T3, Protein skinhead-1 (Caenorhabditis elegans, UniProt P34707); format: functional
# T3 sequence (P34707 whole entry): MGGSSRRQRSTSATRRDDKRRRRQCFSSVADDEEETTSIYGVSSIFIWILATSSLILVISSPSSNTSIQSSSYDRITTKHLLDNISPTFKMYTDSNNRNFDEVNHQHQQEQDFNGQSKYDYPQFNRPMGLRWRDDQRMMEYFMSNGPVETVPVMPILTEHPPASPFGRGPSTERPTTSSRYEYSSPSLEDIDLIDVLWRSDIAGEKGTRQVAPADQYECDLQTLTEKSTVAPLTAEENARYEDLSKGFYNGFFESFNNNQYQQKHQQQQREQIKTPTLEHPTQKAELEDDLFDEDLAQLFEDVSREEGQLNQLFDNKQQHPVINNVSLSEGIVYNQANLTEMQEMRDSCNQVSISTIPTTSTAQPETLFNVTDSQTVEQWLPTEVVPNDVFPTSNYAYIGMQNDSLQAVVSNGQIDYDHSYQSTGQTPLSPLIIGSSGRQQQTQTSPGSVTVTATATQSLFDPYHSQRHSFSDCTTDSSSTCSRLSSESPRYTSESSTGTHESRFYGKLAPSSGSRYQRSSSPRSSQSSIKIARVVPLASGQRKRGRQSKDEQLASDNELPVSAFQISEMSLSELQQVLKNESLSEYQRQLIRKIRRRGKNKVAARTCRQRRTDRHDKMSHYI
smiles,measurement,setting,value
CCOc1ccccc1N(C(=O)CNC(=O)c1ccco1)C(C(=O)NC1CCCC1)c1cccnc1 (stereo not given),AC50,[1],7.37 µM (active)
same,AC50,[2],6.15 µM (active)
same,AC50,[3],9.65 µM (active)
same,AC50,[4],3.91 µM (active)
Cc1nc(N2CCCCC2)sc1C(=O)c1ccc(Cl)c([N+](=O)[O-])c1,EC50,[5],9.77 µM (active)
same,EC50,[6],> 150 µM (not active)
same,EC50,[7],> 75 µM (inconclusive)
same,EC50,[8],15.6 µM (active)
COc1cc(-c2nc3oc4ccccc4c(=O)c3c(=O)n2Cc2ccco2)cc(OC)c1OC,CC50,[9],> 50 µM (active)
same,AC50,[1],2.38 µM (active)
same,AC50,[2],0.584 µM (active)
same,AC50,[3],5.7 µM (active)
same,AC50,[4],4.1 µM (active)
C[C@H](CO)N1C[C@H](C)[C@@H](CN(C)S(=O)(=O)c2cccs2)Oc2ccc(NC(=O)Nc3ccc(C(F)(F)F)cc3)cc2C1=O,AC50,[10],> 100 µM (inactive)
COc1ccc2c(c1)[C@H]1[C@H](CO2)[C@H](c2ccccc2)[C@]2(C)C(=O)Nc3cc(OC)c(OC)cc3C(=O)N12,AC50,[1],16.1 µM (active)
same,AC50,[2],18.9 µM (active)
same,AC50,[3],25.6 µM (active)
same,AC50,[4],27.3 µM (active)
COc1ccccc1C#Cc1ccc([C@@H]2[C@@H](CO)N(C(=O)C3CCCCC3)[C@H]2C#N)cc1,AC50,[11],1.35 µM (active)
same,AC50,[12],16.4 µM (active)
same,AC50,[13],2.73 µM (active)
same,AC50,[14],0.872 µM (active)
same,AC50,[15],> 39 µM (inactive)
same,AC50,[16],1.06 µM (active)
C[C@@H]1CN([C@@H](C)CO)C(=O)c2c(c3ccccc3n2C)-c2ccccc2CO[C@@H]1CN(C)Cc1ccc(Cl)c(Cl)c1,AC50,[11],2.24 µM (active)
same,AC50,[12],22.3 µM (active)
same,AC50,[13],1.34 µM (active)
same,AC50,[14],1.11 µM (active)
same,AC50,[15],22.3 µM (active)
same,AC50,[16],1.73 µM (active)
O=C(Cn1nnc(-c2ccc3c(c2)OCO3)n1)Nc1ccccc1C(=O)O,AC50,[10],32 µM (inactive)
COc1ccc(CN2CC3(C2)CN(C(=O)CN(C)C)[C@H](CO)c2[nH]c4cc(OC)ccc4c23)cc1,AC50,[11],1.6 µM (active)
same,AC50,[12],13.6 µM (active)
same,AC50,[13],2.87 µM (active)
same,AC50,[14],1.64 µM (active)
same,AC50,[15],35.4 µM (active)
same,AC50,[16],2.51 µM (active)
O=C(Nc1ccc(Cl)cc1)N[C@@H]1c2c(ccc3ccccc23)OC[C@@H]1CO,AC50,[10],85.5 µM (active)
CCN(CC)CCNC(=O)c1cc2cc(Br)ccc2s1,AC50,[17],> 20 µM (inactive)
CCOc1ccc(NS(=O)(=O)c2ccc(C(=O)N(C)CCc3ccc(OC)c(OC)c3)cc2)cc1,AC50,[1],3.4 µM (active)
same,AC50,[2],2.58 µM (active)
same,AC50,[3],4.78 µM (active)
same,AC50,[4],5.92 µM (active)
O=C(CSc1n[nH]c(-c2ccccc2)n1)NC(=O)NCc1ccco1,IC50,[18],> 29.9 µM (inactive)
same,EC50,[19],> 29.9 µM (inactive)
COc1ccc2c3c(n(C)c2c1)[C@H](CO)NCC31CCN(S(=O)(=O)c2cccc(F)c2)CC1,AC50,[13],4.66 µM (active)
same,AC50,[15],> 39 µM (inactive)
COc1ccccc1C#Cc1ccc2c(c1)[C@@H]1NCC[C@@H]1[C@H](CO)N2,AC50,[11],3.15 µM (active)
same,AC50,[12],37.3 µM (active)
same,AC50,[13],2.56 µM (active)
same,AC50,[14],1.94 µM (active)
same,AC50,[15],> 39 µM (inactive)
same,AC50,[16],4.53 µM (active)
COc1cc(/C=N/NC(N)=S)ccc1OCc1ccc(C)cc1,EC50,[20],0.566 µM (active)
same,EC50,[21],8.5 µM (active)
same,AC50,[10],69.9 µM (active)
CCn1c(CSc2nnc(-c3ccncc3)n2C)nc2cc(C(=O)O)ccc21,IC50,[22],> 100 µM (inactive)
same,AC50,[10],> 100 µM (inactive)
O=C(C1CCCC1)N1CC(=O)N2[C@@H](CO)[C@H](c3ccc(C#CCc4ccccc4)cc3)[C@@H]2C1,AC50,[13],2.47 µM (active)
same,AC50,[15],8.92 µM (active)
